What all share (details): average where tested multiple times
The target in experiment [1] is T1, BCAT2 (Homo sapiens, UniProt O15382).
T1 sequence (O15382 28-392): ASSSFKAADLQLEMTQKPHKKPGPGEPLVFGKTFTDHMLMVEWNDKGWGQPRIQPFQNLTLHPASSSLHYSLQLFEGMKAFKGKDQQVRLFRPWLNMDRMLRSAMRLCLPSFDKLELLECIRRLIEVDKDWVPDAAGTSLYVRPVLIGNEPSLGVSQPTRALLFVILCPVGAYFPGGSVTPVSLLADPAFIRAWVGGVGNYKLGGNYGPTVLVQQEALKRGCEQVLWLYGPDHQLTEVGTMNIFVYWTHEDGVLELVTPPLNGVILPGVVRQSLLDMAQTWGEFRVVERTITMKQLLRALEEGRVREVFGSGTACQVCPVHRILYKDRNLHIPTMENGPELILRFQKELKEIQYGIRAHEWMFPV
The experiment in a line: BCAT2 in vitro cell inhibition using engineered A549 cells (KMV cell assay, 13C6-KMV by LC-MS/MS). The experiment is classed as cell-based. Further details: The result was an engineered A549 cell line that expressed endogenous BCAT2; endogenous in cells; host or cells: A549 cells with MUT and BCAT1 knocked out by CRISPR/CAS9; key to BCAT2 Cell Inhibition: A: less than or equal to 0.100 μM; B: greater than 0.100 and less than or equal to 0.500 μM; C: greater than 0.500 and less than or equal to 1.000 μM; d: greater than 1.000 μM; E: no fit.

The target of experiment [2] is T1, BCAT2. The experiment in a line: BCAT2 in vitro enzyme inhibition assay (resazurin/diaphorase-coupled fluorescence). The class given is biochemical. The procedure, abridged:
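Coupled fluorescence readout: glutamate formed from L-leucine/α-ketoglutarate transamination drives GDH/NAD/diaphorase reduction of resazurin (Ex 540/Em 590). Human BCAT2 was first exposed 1 h at room temperature to compound, top final 100 μM in 3-fold, 10-point series; substrate reaction ran 1 h before SDS quench, in technical duplicate with DMSO max and enzyme-free min controls.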

In a further experiment the target is T2, hBCAT1 (Homo sapiens, UniProt P54687).
T2 sequence (P54687 1-386): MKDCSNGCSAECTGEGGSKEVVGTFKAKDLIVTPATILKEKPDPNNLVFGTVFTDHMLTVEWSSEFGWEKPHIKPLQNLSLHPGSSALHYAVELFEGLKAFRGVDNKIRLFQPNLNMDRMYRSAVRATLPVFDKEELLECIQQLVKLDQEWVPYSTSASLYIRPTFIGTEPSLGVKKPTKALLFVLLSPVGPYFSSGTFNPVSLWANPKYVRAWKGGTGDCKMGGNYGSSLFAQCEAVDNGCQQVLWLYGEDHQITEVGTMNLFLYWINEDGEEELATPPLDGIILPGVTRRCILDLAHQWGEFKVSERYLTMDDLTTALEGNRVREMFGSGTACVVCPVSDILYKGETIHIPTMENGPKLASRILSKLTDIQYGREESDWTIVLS
The experiment in a line: BCAT1 in vitro enzyme inhibition assay (resazurin/diaphorase-coupled fluorescence). The class given is biochemical. The procedure, abridged:
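Human BCAT1 activity read by resazurin/diaphorase-coupled fluorescence. Compounds added from 50× DMSO stocks at 1:50, giving 10-point 3-fold titrations from 100 μM top final concentration. Run in technical duplicate; repeat tests averaged.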

SMILES strings stand for the structures. A value given as a limit tells only on which side of the number the result lay.

Usually IC50 stands for the concentration at which inhibition is half-maximal. Take `Cc1cnn(-c2cc3c(cn2)nc(-c2ccccc2F)n3[C@@H]2CCC[C@H](NC(=O)c3ncc(Cl)s3)[C@H]2O)n1` [Example 246, 5-chloro-N-((1S,2R,3R)-3-(2-(2-fluorophenyl)-6-(4-methyl-2H-1,2,3-triazol-2-yl)-1H-imidazo[4,5-c]pyridin-1-yl)-2-hydroxycyclohexyl)thiazole-2-carboxamide]: the figures for the IC50 at BCAT2 [1], on BCAT2 [2] and on hBCAT1 were not above 100 nM, not above 100 nM and less than 500 nM, respectively.

With `O=C(N[C@H]1CCC[C@@H](n2c(-c3ncccc3F)nc3cnc(-c4nc[nH]n4)cc32)C1)c1ncc(C(F)F)s1` [Example 75, 5-(difluoromethyl)-N-((1S,3R)-3-(2-(3-fluoropyridin-2-yl)-6-(1H-1,2,4-triazol-3-yl)-1H-imidazo[4,5-c]pyridin-1-yl)cyclohexyl)thiazole-2-carboxamide], the half-inhibitory concentration (IC50) against BCAT2 [1] is not above 100 nM; against BCAT2 [2] it was not above 100 nM; at hBCAT1 it was less than 500 nM.

In the case of `Nc1cc2c(cn1)nc(-c1ccccc1F)n2[C@@H]1C[C@@H](O)C[C@H](NC(=O)c2ncc(Cl)s2)C1` [Example 270, N-((1R,3S,5S)-3-(6-amino-2-(2-fluorophenyl)-1H-imidazo[4,5-c]pyridin-1-yl)-5-hydroxycyclohexyl)-5-chlorothiazole-2-carboxamide], the figures for the 50% inhibitory concentration (IC50) against BCAT2 [1], on BCAT2 [2] and on hBCAT1 were more than 1000 nM, not above 100 nM and less than 500 nM, respectively.

With `O=C(N[C@H]1CCC[C@@H](n2c(-c3ncccc3F)nc3cnc(-c4ccn[nH]4)cc32)C1)c1ccc(Cl)s1` [Example 78, 5-chloro-N-((1S,3R)-3-(2-(3-fluoropyridin-2-yl)-6-(1H-pyrazol-5-yl)-1H-imidazo[4,5-c]pyridin-1-yl)cyclohexyl)thiophene-2-carboxamide], the IC50 against BCAT2 [1] is not above 100 nM; on BCAT2 [2] it was not above 100 nM; at hBCAT1, less than 500 nM.

As to `O=C(N[C@H]1CCC[C@@H](n2c(-c3ccccc3F)nc3cnc(-c4nc[nH]n4)cc32)C1)c1ncc(C(F)(F)F)s1` [Example 85, N-((1S,3R)-3-(2-(2-fluorophenyl)-6-(1H-1,2,4-triazol-3-yl)-1H-imidazo[4,5-c]pyridin-1-yl)cyclohexyl)-5-(trifluoromethyl)thiazole-2-carboxamide], the IC50 against BCAT2 [1] was not above 100 nM; against BCAT2 [2], not above 100 nM; against hBCAT1, less than 500 nM.

Regarding `O=C(N[C@H]1CCCC[C@@H](n2c(-c3ccccc3F)nc3cnc(-c4nc[nH]n4)cc32)[C@@H]1O)c1ccc(Cl)s1` [Example 405, 5-chloro-N-((1S,2R,3R)-3-(2-(2-fluorophenyl)-6-(1H-1,2,4-triazol-3-yl)-1H-imidazo[4,5-c]pyridin-1-yl)-2-hydroxycycloheptyl)thiophene-2-carboxamide], the IC50 against BCAT2 [1] is not above 100 nM; on BCAT2 [2] it was not above 100 nM; at hBCAT1, less than 500 nM.

As to `O=C(N[C@H]1CCC[C@@H](n2c(-c3ccccc3F)nc3cnc(-c4ncccn4)cc32)C1)c1ncc(Cl)s1` [Example 185, 5-chloro-N-((1S,3R)-3-(2-(2-fluorophenyl)-6-(pyrimidin-2-yl)-1H-imidazo[4,5-c]pyridin-1-yl)cyclohexyl)thiazole-2-carboxamide], the IC50 is not above 100 nM against BCAT2 [1], not above 100 nM against BCAT2 [2] and less than 500 nM against hBCAT1.

With `COC(c1nc2cnc(-c3nc[nH]n3)cc2n1[C@@H]1CCC[C@H](NC(=O)c2ncc(Cl)s2)C1)C(C)C` (stereo partly drawn) [Example 314, 5-chloro-N-((1S,3R)-3-(2-(1-methoxy-2-methylpropyl)-6-(1H-1,2,4-triazol-3-yl)-1H-imidazo[4,5-c]pyridin-1-yl)cyclohexyl)thiazole-2-carboxamide], the IC50 is 100 to 500 nM at BCAT2 [1], not above 100 nM on BCAT2 [2] and less than 500 nM on hBCAT1.

With `COCc1nc2cnc(-c3nc[nH]n3)cc2n1[C@@H]1CCC[C@H](NC(=O)c2ncc(Cl)s2)C1` [Example 91, 5-chloro-N-[(1S,3R)-3-[2-(methoxymethyl)-6-(1H-1,2,4-triazol-3-yl)imidazo[4,5-c]pyridin-1-yl]cyclohexyl]thiazole-2-carboxamide], the results for the half-inhibitory concentration (IC50) on BCAT2 [1], against BCAT2 [2] and at hBCAT1 were more than 1000 nM, 100 to 500 nM and 1000 to 5000 nM, respectively.

As for `O=C(N[C@H]1CCCN(n2c(-c3ccccc3F)nc3cnc(-c4nc[nH]n4)cc32)C1)c1ncc(Cl)s1` [Example 364, (S)-5-chloro-N-(1-(2-(2-fluorophenyl)-6-(1H-1,2,4-triazol-3-yl)-1H-imidazo[4,5-c]pyridin-1-yl)piperidin-3-yl)thiazole-2-carboxamide], the IC50 is not above 100 nM at BCAT2 [1], not above 100 nM on BCAT2 [2] and less than 500 nM on hBCAT1.

Take `O=C(N[C@H]1CCC[C@@H](n2c(-c3c(O)cccc3F)nc3cnc(-c4nc[nH]n4)cc32)C1)c1ccc(Cl)s1` [Example 338, 5-chloro-N-((1S,3R)-3-(2-(2-fluoro-6-hydroxyphenyl)-6-(1H-1,2,4-triazol-3-yl)-1H-imidazo[4,5-c]pyridin-1-yl)cyclohexyl)thiophene-2-carboxamide]: the values for the IC50 against BCAT2 [1], against BCAT2 [2] and against hBCAT1 were not above 100 nM, not above 100 nM and less than 500 nM, respectively.

On to `O=C(N[C@H]1CCC[C@@H](n2c(COC(F)(F)F)nc3cnc(-n4nccn4)cc32)C1)c1ncc(Cl)s1` [Example 315, N-((1S,3R)-3-(6-(2H-1,2,3-triazol-2-yl)-2-((trifluoromethoxy)methyl)-1H-imidazo[4,5-c]pyridin-1-yl)cyclohexyl)-5-chlorothiazole-2-carboxamide], for which the IC50 against BCAT2 [1] was 100 to 500 nM; against BCAT2 [2], not above 100 nM; against hBCAT1 it was 500 to 1000 nM.

Regarding `CC(C)Oc1nc2cnc(-n3nccn3)cc2n1[C@@H]1CCC[C@H](NC(=O)c2ncc(C(F)F)s2)C1` [Example 79, 5-(difluoromethyl)-N-((1S,3R)-3-(2-isopropoxy-6-(2H-1,2,3-triazol-2-yl)-1H-imidazo[4,5-c]pyridin-1-yl)cyclohexyl)thiazole-2-carboxamide], the IC50 against BCAT2 [1] was more than 1000 nM; against BCAT2 [2] it was 100 to 500 nM; against hBCAT1, more than 5000 nM.

In the case of `O=C(N[C@H]1CCC[C@@H](n2c(-c3ncccc3F)nc3cnc(-n4nccn4)nc32)C1)c1ncc(C(F)F)s1` [Example 58, 5-(difluoromethyl)-N-((1S,3R)-3-(8-(3-fluoropyridin-2-yl)-2-(2H-1,2,3-triazol-2-yl)-9H-purin-9-yl)cyclohexyl)thiazole-2-carboxamide], the IC50 was 100 to 500 nM against BCAT2 [1], not above 100 nM against BCAT2 [2] and 1000 to 5000 nM at hBCAT1.

Consider `O=C(NC1COCC(n2c(-c3ncccc3F)nc3cnc(-n4nccn4)cc32)C1)c1ncc(C(F)F)s1` (single isomer, unassigned) [Example 139, 5-(difluoromethyl)-N-(5-(2-(3-fluoropyridin-2-yl)-6-(2H-1,2,3-triazol-2-yl)-1H-imidazo[4,5-c]pyridin-1-yl)tetrahydro-2H-pyran-3-yl)thiazole-2-carboxamide], for which, at BCAT2 [1], the “BCAT2 Cell Inhibition” value is listed as “E”. The half-maximal inhibitory concentration (IC50) is more than 1000 nM against BCAT2 [2] and more than 5000 nM against hBCAT1.

`CO[C@@H]1[C@@H](NC(=O)c2ncc(Cl)s2)CCC[C@H]1n1c(-c2ccccc2F)nc2cnc(-c3nc[nH]n3)cc21` [Example 234, 5-chloro-N-((1S,2R,3R)-3-(2-(2-fluorophenyl)-6-(1H-1,2,4-triazol-3-yl)-1H-imidazo[4,5-c]pyridin-1-yl)-2-methoxycyclohexyl)thiazole-2-carboxamide]: the half-inhibitory concentration (IC50) was 500 to 1000 nM against BCAT2 [1], not above 100 nM at BCAT2 [2] and 1000 to 5000 nM against hBCAT1.

Regarding `CC(=O)N1CC(NC(=O)c2ncc(C(F)F)s2)CC(n2c(-c3ccccc3F)nc3cnc(-n4ccnn4)cc32)C1` (stereo not drawn) [Example 124, N-(1-acetyl-5-(2-(2-fluorophenyl)-6-(1H-1,2,3-triazol-1-yl)-1H-imidazo[4,5-c]pyridin-1-yl)piperidin-3-yl)-5-(difluoromethyl)thiazole-2-carboxamide], the 50% inhibitory concentration (IC50) is 100 to 500 nM at BCAT2 [1], not above 100 nM against BCAT2 [2] and 1000 to 5000 nM on hBCAT1.

The values are drawn from patent US20260159512A1, “BCAT2 INHIBITORS” (AGIOS PHARMACEUTICALS, INC., priority 2021, published 2026).
